{
  "source": "patent US20110144014A1",
  "about": "“CYTOKINE RECEPTOR MODULATORS AND USES THEREOF” (CENTRE HOSPITALIER UNIVERSITAIRE SAINTE-JUSTINE, priority 2005, published 2011)",
  "key": {"IL-1R/IL-1RacP": {"system": "IL-1R/IL-1RacP", "experiment": "IL-1β-induced cGMP production in brain tissues ex vivo", "protocol": "For these newly derived peptides, ex vivo experiments were then conducted. Brain tissues were incubated with the peptides and IL-1β and cGMP was measured with a commercial kit (Amersham Bioscience, cGMP assay biotrack™ system). API-101.10 already inhibited 85% of IL-1β-induced cGMP production (10^−6M) and API-101.103 and 101.106 inhibited more than 90% of cGMP production. Thus, removal of the negative charge of the glutamate and removal of the threonine can improve the potency of the antagonist."}, "[1]": {"system": "TNBS-induced colon inflammation", "experiment": "TNBS rat model of inflammatory bowel disease", "type": "in vivo", "protocol": "Colon inflammation was induced by intra-rectal/colon administration of the hapten trinitrobenzene sulphonic acid (TNBS) on male Sprague-Dawley rats (175-200 g) (Bouma, Nature Rev, 2003; Morris, Gastroenterology, 1989). Animals were anesthetized with isoflurane and TNBS dissolved in 50% ethanol (vol/vol). 120 mg/ml (TNBS) was administered into the colon (total volume of 0.25 ml per rat) using a polyethylene tube (PE50). The cannula was inserted at 8 cm from the anus and kept in place for at least 15 minutes after TNBS administration in order to prevent expulsion of the solution. Two hours prior to TNBS administration, the API-101 derivative API-101.10 (1.1 mg/kg) or 0.9% saline was administered intravenously via the caudal vein (total volume of 0.3 ml). […] A third group (control) was not injected with TNBS. Six days after administration of TNBS, rats were killed by CO2 inhalation. Day 6 was chosen as an endpoint because by day 7 spontaneous tissue regeneration begins and this can mask the therapeutic effect of the tested peptide or peptide derivative. Colon was removed and examined macroscopically (adhesions, ulcerations, discoloration and bleeding) and histologically (neutrophil infiltration, epithelial injury, crypt distortion and ulcerations) (Anthony et al., Int. J. Exp. Path. 76:215-224, 1995; Padol et al., Eur. J. of Gastroenterol. Hepatol. 12:257-265, 2000; Dieleman et al., […], 1997; Torres et al., Digestive Diseases and Sciences 44:2523-2529, 1999). Two animals per group were studied.\nHistological transversal sections were cut at 4-6 cm from the proximal anal region and colored with the hematoxylin/eosin method. The TNBS model of inflammatory bowel disease reproduces the inflammatory characteristics and tissue injuries of Crohn's disease (e.g., in humans). Morphologically, the colon of the animals injected with TNBS presented thickening, edema, and discoloration of the intestinal wall indicating a significant inflammation. […] Histological features consisted of neutrophil infiltration into the epithelial layer and crypts, epithelial lining injury as well as the loss of crypts. […] The organization and integrity of the crypts in the API-101.10-treated colon is conserved even if there is still some inflammation (half the dose of API-101.10 was used as compared to the macroscopic analysis experiment).\nColon inflammation was induced by intra-rectal/colon administration of the hapten trinitrobenzene sulphonic acid (TNBS) as described above. Two hours prior to TNBS administration, peptides, peptidomimetics or 0.9% saline were administered intravenously (iv) via the caudal vein (various concentrations of mg/kg/d) (total volume of 0.3 ml). […] A third group (control) was not injected with TNBS. For intermittent administration, fifteen minutes after TNBS administration, 101.10 (0.25-1 mg/kg), 101.107 (0.2 mg/kg), 101.113 (0.05-1 mg/kg) were administered by intermittent intraperitoneal injection (ip). Also, these IL-1R antagonists were given twice a day (BID); Remicade® (anti-TNFα) (10 mg/kg) and dexamethasone (0.75 mg/kg) were administered intraperitoneally but only once a day (qd). The intrarectal administration (ir) of 101.10, 101.113 (1 and 2.5 mg/kg), and 5-ASA (50 mg/kg) was done one hour after TNBS administration, and twice a day, except for 5-ASA which is once a day. Finally, 101.10 (1-5 mg/kg) was also administered orally by gavage (po), twice a day. Forty-eight hours after administration of TNBS, rats were killed by CO2 inhalation. The colon was removed and assessed macroscopically (adhesions, ulcerations, discoloration and bleeding) and histologically (neutrophil infiltration, epithelial injury, crypt distortion and ulcerations). One to seven animals per group were studied, according to treatments. Myeloperoxidase (MPO) activity was measured on tissue lysates."}, "[2]": {"details": "continuous infusion (ip), 0.25 mg/kg/d"}, "[3]": {"details": "continuous infusion (ip), 0.75 mg/kg/d"}, "[4]": {"details": "continuous infusion (ip), 2.2 mg/kg/d"}, "[5]": {"details": "continuous infusion (ip), 4.0 mg/kg/d"}, "[6]": {"details": "intermittent injection (ip), 0.25-BID mg/kg/d"}, "[7]": {"details": "intermittent injection (ip), 0.50-BID mg/kg/d"}, "[8]": {"details": "intermittent injection (ip), 1.0-BID mg/kg/d"}, "[9]": {"details": "intermittent injection (ip), 1.0-BID mg/kg/d, 12 h after TNBS"}, "[10]": {"details": "intermittent injection (ip), 1.0-qd mg/kg/d"}, "[11]": {"details": "intrarectal administration, 2.5-BID mg/kg/d"}, "[12]": {"details": "intrarectal administration, + PEG-400, 1.0-BID mg/kg/d"}, "[13]": {"details": "intrarectal administration, + PEG-400, 2.5-BID mg/kg/d"}, "[14]": {"details": "oral administration, 5.0-BID mg/kg/d"}, "[15]": {"details": "oral administration, + PEG-400, 1.0-BID mg/kg/d"}, "[16]": {"details": "oral administration, + PEG-400, 2.5-BID mg/kg/d"}, "[17]": {"details": "oral administration, + PEG-400, 5.0-BID mg/kg/d"}},
  "note": "Marks after values point to notes of the source that are not given here. Where a SMILES comes first, the peptide text is derived from it. [ ]: non-standard residue; d: D form.",
  "data": [
    {"molecule": "CC(C)C[C@@H](NC(=O)[C@@H](CCC(=O)O)NC(=O)[C@H](NC(=O)[C@H](NC(=O)[C@@H](Cc1ccc(O)cc1)NC(=O)[C@H](N)CCCNC(=N)N)[C@H](C)O)C(C)C)C(=O)N[C@H](C)C(N)=O", "note": "[API-101.10, RYTVELA] (H-[dR][dY][dT][dV][dE][dL][dA]-NH2; N-terminus and C-terminus assumed)", "values": [
      {"measurement": "inhibition of IL-1β-induced cGMP production", "setting": "IL-1R/IL-1RacP; brain tissues, 10^−6M", "value": 85, "unit": "%"},
      {"measurement": "activity compared with Kineret", "setting": "IL-1R/IL-1RacP; data not shown", "value": "superior"},
      {"measurement": "TNBS-induced colon damage", "setting": "[1]; 1.1 mg/kg iv 2 h before TNBS, then 2.2 mg/kg continuous ip infusion, day 6", "value": "prevented TNBS-induced colon damage"},
      {"measurement": "Histologic evaluation (median score)", "setting": "[1]; [2]", "value": "2 (Small ulcer (<5 crypts))"},
      {"measurement": "MPO (% of TNBS + Saline)", "setting": "[1]; [2]", "value": "34 % of TNBS + Saline"},
      {"measurement": "Histologic evaluation (median score)", "setting": "[1]; [3]", "value": 4.4, "unit": "median score"},
      {"measurement": "MPO (% of TNBS + Saline)", "setting": "[1]; [3]", "value": "54 % of TNBS + Saline"},
      {"measurement": "Histologic evaluation (median score)", "setting": "[1]; [4]", "value": "2 (Small ulcer (<5 crypts))"},
      {"measurement": "MPO (% of TNBS + Saline)", "setting": "[1]; [4]", "value": "46 ± 22 % of TNBS + Saline"},
      {"measurement": "Histologic evaluation (median score)", "setting": "[1]; [5]", "value": "2 (Small ulcer (<5 crypts))"},
      {"measurement": "MPO (% of TNBS + Saline)", "setting": "[1]; [5]", "value": "82 % of TNBS + Saline"},
      {"measurement": "inflammatory features and MPO activity", "setting": "[1]; gavage twice a day, 5.0 mg/kg/d", "value": "substantially reduces"},
      {"measurement": "Histologic evaluation (median score)", "setting": "[1]; [6]", "value": 2.25, "unit": "median score"},
      {"measurement": "MPO (% of TNBS + Saline)", "setting": "[1]; [6]", "value": "85 % of TNBS + Saline"},
      {"measurement": "Macroscopic evaluation (median score)", "setting": "[1]; [6]", "value": 0.87, "unit": "median score"},
      {"measurement": "Histologic evaluation (median score)", "setting": "[1]; [7]", "value": "3 (Medium ulcer (5-10 crypts))"},
      {"measurement": "MPO (% of TNBS + Saline)", "setting": "[1]; [7]", "value": "126 % of TNBS + Saline"},
      {"measurement": "Macroscopic evaluation (median score)", "setting": "[1]; [7]", "value": 0.87, "unit": "median score"},
      {"measurement": "Histologic evaluation (median score)", "setting": "[1]; [8]", "value": 1.25, "unit": "median score"},
      {"measurement": "MPO (% of TNBS + Saline)", "setting": "[1]; [8]", "value": "47 ± 9 % of TNBS + Saline"},
      {"measurement": "Macroscopic evaluation (median score)", "setting": "[1]; [8]", "value": "0.8 ± 0.1", "unit": "median score"},
      {"measurement": "Histologic evaluation (median score)", "setting": "[1]; [9]", "value": 2.6, "unit": "median score"},
      {"measurement": "Macroscopic evaluation (median score)", "setting": "[1]; [9]", "value": "1.1 ± 0.1", "unit": "median score"},
      {"measurement": "MPO (% of TNBS + Saline)", "setting": "[1]; intermittent injection (ip), 1.0-BID mg/kg/d, 12 h after TNBS, leucocyte infiltration has already occurred", "value": "123 ± 18 % of TNBS + Saline"},
      {"measurement": "Histologic evaluation (median score)", "setting": "[1]; [10]", "value": "5 (Marked denudation (>20 crypts))"},
      {"measurement": "MPO (% of TNBS + Saline)", "setting": "[1]; [10]", "value": "67 % of TNBS + Saline"},
      {"measurement": "Macroscopic evaluation (median score)", "setting": "[1]; [10]", "value": 1.63, "unit": "median score"},
      {"measurement": "MPO activity, macroscopic and histologic score", "setting": "[1]; intraperitoneal osmotic pumps (continuous infusion), superior or equivalent to Kineret", "value": "marked reductions"},
      {"measurement": "MPO (% of TNBS + Saline)", "setting": "[1]; [11]", "value": "111 ± 25 % of TNBS + Saline"},
      {"measurement": "Macroscopic evaluation (median score)", "setting": "[1]; [11]", "value": "1.4 ± 0.1", "unit": "median score"},
      {"measurement": "Histologic evaluation (median score)", "setting": "[1]; [12]", "value": 3.2, "unit": "median score"},
      {"measurement": "MPO (% of TNBS + Saline)", "setting": "[1]; [12]", "value": "110 % of TNBS + Saline"},
      {"measurement": "Macroscopic evaluation (median score)", "setting": "[1]; [12]", "value": 1.25, "unit": "t median score"},
      {"measurement": "Histologic evaluation (median score)", "setting": "[1]; [13]", "value": 3.9, "unit": "median score"},
      {"measurement": "MPO (% of TNBS + Saline)", "setting": "[1]; [13]", "value": "59 % of TNBS + Saline"},
      {"measurement": "Macroscopic evaluation (median score)", "setting": "[1]; [13]", "value": "1.17^† median score"},
      {"measurement": "reduction of MPO activity", "setting": "[1]; intrarectally, 2.5 mg/kg/d", "value": 50, "unit": "%"},
      {"measurement": "Histologic evaluation (median score)", "setting": "[1]; [14]", "value": 2.25, "unit": "median score"},
      {"measurement": "MPO (% of TNBS + Saline)", "setting": "[1]; [14]", "value": "65 % of TNBS + Saline"},
      {"measurement": "Macroscopic evaluation (median score)", "setting": "[1]; [14]", "value": 0.75, "unit": "median score"},
      {"measurement": "Histologic evaluation (median score)", "setting": "[1]; [15]", "value": 3.5, "unit": "median score"},
      {"measurement": "MPO (% of TNBS + Saline)", "setting": "[1]; [15]", "value": "167 % of TNBS + Saline"},
      {"measurement": "Macroscopic evaluation (median score)", "setting": "[1]; [15]", "value": 1.0, "unit": "median score"},
      {"measurement": "Histologic evaluation (median score)", "setting": "[1]; [16]", "value": 3.5, "unit": "median score"},
      {"measurement": "MPO (% of TNBS + Saline)", "setting": "[1]; [16]", "value": "176 % of TNBS + Saline"},
      {"measurement": "Macroscopic evaluation (median score)", "setting": "[1]; [16]", "value": 1.25, "unit": "median score"},
      {"measurement": "Histologic evaluation (median score)", "setting": "[1]; [17]", "value": 3.6, "unit": "median score"},
      {"measurement": "MPO (% of TNBS + Saline)", "setting": "[1]; [17]", "value": "57 % of TNBS + Saline"},
      {"measurement": "Macroscopic evaluation (median score)", "setting": "[1]; [17]", "value": 1.5, "unit": "median score"},
      {"measurement": "efficacy of intermittent administration", "setting": "[1]; twice a day, surpasses dexamethasone, Remicade and 5-ASA", "value": "dose-dependent efficacy"}
    ]}
  ]
}
